This note sets out measurements from patent publication US11406642B2, “DNP and DNP prodrug treatment of neuromuscular, neurodegenerative, autoimmune, developmental, traumatic brain injury, concussion, dry eye disease, hearing loss and/or metabolic diseases” (priority 2016, dated 2022).

Where two headings read alike, the source gives them in different places.

The subject of one series is dopaminergic neurons. Nature of the series: Parkinson model using 6-OHDA. The following applies: chronic treatment. It is filed as in vivo. The source says:
In one embodiment, the invention provides compositions and methods for treating neurodegenerative diseases such as Alzheimer's disease, Parkinson, and Huntington's disease. It is believed that the complete lack of historic success is due to most pharmaceutical industries focusing on a downstream event, such as plaques/tangles, whereas the issue is likely upstream at the mitochondria causing high cellular stress.

The next series deals with Caco-2. Nature of the series: Caco-2. It is filed as in vitro ADME. An excerpt: Overt reactive oxygen species (ROSs) can be produced due to noise and certain ototoxic drugs that can damage the hair cells of the ear, resulting in either temporary or permanent hearing loss. Exposure to blast waves and continuous noise not only damaged the inner ear, but caused cell death in the hippocampus, suppressed neurogenesis and impaired memory function. Aging as well can manifest in mitochondrial dysfunction leading to hearing loss. It is emerging that attempts to treat hearing loss by targeting downstream issues is not very effective. In one embodiment, the compositions and methods of the invention relate to targeting oxidative stress upstream at the mitochondria that may be causative for many disorders. There have been a variety of attempts to lower cellular stress, such as administering anti-oxidants, however these drugs have limited tissue penetration into the brain and lower ROSs after they have been formed. […] While not being bound to theory, it is postulated that DNP modulates the mitochondrial membrane potential having a significant impact at preventing ROS formation in isolated mitochondria and in the treated wildtype mice. DNP treatment 3-hours post-ischemia reduced cerebral infarct volume 40% by protecting the penumbra or “threaten tissue” and could provide similar benefits after a blast to protect inner hair cells from eminent cell death. […]

Series [1] in a line: Plasma pharmacokinetics of 2,4-DNP, i.v. and oral. The format is in vivo, Sprague-Dawley male rats. As to the method:
All procedures that involved the use of rats were conducted in accordance with the guidelines set forth by the University of Arkansas for Medical Sciences (UAMS) Institutional Animal Care and Use Committee established by the National Institutes of Health's Guide for the Care and Use of Laboratory Animals (1996). Male Sprague-Dawley rats weighing 250-300 grams were housed three per cage with ad libitum access to food and water in the Division of Laboratory Animal Resources, UAMS. Rats were anesthetized with isofluorane (2-5%)/oxygen (1.5-2.0 L/min) and surgically implanted with cannulae in the jugular (i.v. dosing) and femoral (blood sampling) veins. […] Following appropriate evidence of successful recovery from surgery, IV or oral dosing was performed and blood samples (0.15 mL) were collected at 0, 5, 15, 30, 45, 60, 120, 240 and 480 min. Plasma samples were prepared and analysis was run using a LC/MS/MS spectrometry.
2,4-DNP was dissolved in a phosphate-saline buffer solution, pH 7.4 containing 5% DMSO and 20% PEG-400 and filtered through a 0.2-μm filter. For the oral route, rats were gavaged with 5 mg/kg in a total volume of 8 mL/kg from a stock solution containing 0.625/mL of 2,4-DNP. For the i.v. injection, a total volume of 0.8 mL/kg was used at a dose of 1 mg/kg from a stock solution containing 1.25 mg/mL.
Jugular and femoral vein-catheterized Sprague-Dawley male rats (weights 250-300 g) were treated with 2,4-DNP at a single oral dose of 5 mg/kg (n=4) or a single i.v. dose of 1 mg/kg (n=3). For each i.v. and oral experiment, blood samples (0.15 mL) were collected at 0, 5, 15, 30, 45, 60, 120, 240 and 480 min. The withdrawn blood was replaced with heparinized saline (0.15 mL). Blood samples were centrifuged at 10,000 rpm for 10 min at room temperature, and plasma samples were prepared and analysis was run using a sensitive LC/MS/MS spectrometry method (see below).
To isolate the analytes from rat plasma, 50 μL of control or treated plasma fortified with 10 μL of 2,4-DNP-d3 (10 μg/mL) as an internal standard to which 0.3 mL of methanol followed by 0.3 mL of acetonitrile was added. The mixture was vortex-mixed for 30 s and centrifuged for 10 min at 10,000 rpm at room temperature. The supernatant was transferred into 5 mL glass tubes and evaporated to dryness at 37° C. under nitrogen gas. The pellet was reconstituted with 50 μL of acetonitrile, vortex-mixed for 30 sec, followed by sonication for 1 min. Following centrifugation at 1000 rpm for 10 min at room temperature, 5 μL of the supernatant was then injected onto the column, and analytes were quantified by a LC/MS/MS spectrometry.
1—Plasma concentrations of 2,4-DNP after a single i.v. injection of 2,4-DNP of 1 mg/kg or 5 mg/kg oral administration; 2—Plasma concentrations of II-38 and 2,4-DNP-released from II-38 after an i.v. injection 1.6 mg/kg of II-38 eq. to 1 mg/kg of 2,4-DNP or an oral dose of 8, 40 and 80 mg/kg of II-38 eq. to 5, 25 and 50 mg/kg of 2,4-DNP, respectively. The mass spectrometer was an Agilent quadrupole mass spectrometer operated in the multiple reaction monitoring (MRM) mode. 2,4-DNP-d3 was used as an internal standard. 2,4-DNP, II-38 and 2,4-DNP-d3 were separated using an Alltima C18 column, 5 μm, 3.2×150 mm (Grace Discovery Sciences, IL, USA) equipped with a guard column: Alltima C18, 5 μm, 4.6×7.5 mm (Grace Discovery Sciences, IL, USA). The mobile phase consists of water with 0.005% formic acid as solvent A and acetonitrile with 0.005% formic acid as solvent B. For analysis of 2,4-DNP, II-38 and 2,4-DNP-d3 compounds, the separation was achieved using a gradient of 10 to 90% solvent B in 3.5 min, which was maintained at 90% B for the next 3.30 min and then equilibrated back to the initial conditions over 3.20 min. The flow rate was 0.8 mL/min with a column temperature of 30° C. The sample injection volume was 5 μL. […]

The next series has as its system spiny neurons. The series is described as follows: Model of Huntington's disease. The format is in vivo. The following applies: treatment for over 17-weeks. An excerpt:
In one embodiment, the invention provides compositions and methods for treating Huntington's disease. […] DNP should prevent muscle loss since it reduces mitochondrial osmotic swelling by reducing intra-mitochondrial calcium concentration and inducing BDNF, which is a myokine (muscle protectant) outside of the brain.

The mark [2] stands for this setting: 2,4-DNP single oral dose 5 mg/kg, n = 4, 5 mg/kg.
Where [3] appears, read: 2,4-DNP single oral dose 5 mg/kg, n = 4, listed as DNP, 5 mg/kg.

One may read the AUC as concentration integrated over time. For orientation: Cmax means the maximum level reached in the sampled fluid or tissue. What is called Tmax is the time from dosing to the highest level. In general, half-life refers to the time needed for the level to fall by half in the phase considered. A lower half-life goes with rapid decline. A word on the bioavailability: it is the share of a dose that reaches the circulation, judged against a reference dose that is usually intravenous. For the compound `O=[N+]([O-])c1ccc(O)c([N+](=O)[O-])c1` [2,4-DNP, 2,4-dinitrophenol], the “protection of dopaminergic neurons” value in the series with dopaminergic neurons is listed as “positive protective effect”. Besides, the “inhibition, Caco-2” value with Caco-2 was “no inhibition”. The AUC in series [1] (setting [2]) was 13288.0 ± 1634.1 µg·min/mL; in series [1] (setting [3]), 13288 µg·min/mL; in series [1] (male, Sprague-Dawley, rat, plasma, iv, 2,4-DNP single i.v. dose 1 mg/kg, n = 3, read-out: AUC (converted)) it was 1350 µg·min/mL; in series [1] (male, Sprague-Dawley, rat, plasma, 2,4-DNP single oral dose 5 mg/kg, n = 4, read-out: AUC (converted)), 13300 µg·min/mL. The t1/2 is 2.272 ± 0.182 h in series [1] (setting [2]) and 2.27 h in series [1] (setting [3]). Besides, the Cmax in series [1] (setting [3]) amounted to 50 µg/mL; in series [1] (male, Sprague-Dawley, rat, plasma, iv, 1 mg/kg, 2,4-DNP single i.v. dose 1 mg/kg, n = 3, read-out: Cmax), 11.5 ± 6.2 µg/mL; in series [1] (male, Sprague-Dawley, rat, plasma, po, 5 mg/kg, 2,4-DNP single oral dose 5 mg/kg, n = 4, read-out: Cmax), 50.1 ± 7.4 µg/mL. In addition, the Tmax in series [1] (setting [3]) is 0.633 h; in series [1] (male, Sprague-Dawley, rat, plasma, po, 5 mg/kg, 2,4-DNP single oral dose 5 mg/kg, n = 4, read-out: tmax (converted)) it was 0.625 h. The half-life in series [1] (male, Sprague-Dawley, rat, plasma, iv, 1 mg/kg, 2,4-DNP single i.v. dose 1 mg/kg, n = 3) came out at 1.5 ± 0.165 h; in series [1] (male, Sprague-Dawley, rat, plasma, po, 5 mg/kg, 2,4-DNP single oral dose 5 mg/kg, n = 4), 2.27 ± 0.182 h. In addition, in series [1] (male, Sprague-Dawley, rat, plasma, iv, 2,4-DNP single i.v. dose 1 mg/kg, n = 3), the clearance came to 1.2 ± 0.6 mL/min/kg. In series [1] (male, Sprague-Dawley, rat, plasma, iv, 2,4-DNP single i.v. dose 1 mg/kg, n = 3, read-out: Vss), the Vd was 0.161 ± 0.135 L/kg. Further, the bioavailability in series [1] (male, Sprague-Dawley, rat, plasma, 2,4-DNP single oral dose 5 mg/kg, n = 4) was determined as 65.8 ± 11.4%. In the series with spiny neurons, the “effect on spiny neurons” value is recorded as “protection on the spiny neurons”.
